Source: ChEMBL document CHEMBL3414470, “Synthesis and biological evaluation of 4-oxycoumarin derivatives as a new class of antifilarial agents” (Eur J Med Chem, 2015)
Values after ≈ are worked out from the molar mass of the structure shown. One block for each compound: values may come before it. Active and inactive are the calls of the source. The calls are words filed in the database; no cut-off is given here.

Columns and labels:
Brugia malayi [1] = assay: Antifilarial activity against Brugia malayi adult worm assessed as reduction in motility at 8.9 uM after 5 days by MTT dye reduction assay; format: functional, organism-based
Brugia malayi [2] = assay: Antifilarial activity against Brugia malayi adult worm assessed as reduction in motility at 4.45 uM after 5 days by MTT dye reduction assay; format: functional, organism-based
Brugia malayi [3] = assay: Antifilarial activity against Brugia malayi adult worm assessed as reduction in motility at 2.17 uM after 5 days by MTT dye reduction assay; format: functional, organism-based
Brugia malayi [4] = assay: Antifilarial activity against Brugia malayi adult worm assessed as reduction in motility at 1.12 uM after 5 days by MTT dye reduction assay; format: functional, organism-based
Brugia malayi [5] = assay: Antifilarial activity against Brugia malayi microfilaria assessed as reduction in motility at 8.9 uM after 5 days by MTT dye reduction assay; format: functional, organism-based
Brugia malayi [6] = assay: Antifilarial activity against Brugia malayi microfilaria assessed as reduction in motility at 4.45 uM after 5 days by MTT dye reduction assay; format: functional, organism-based
Brugia malayi [7] = assay: Antifilarial activity against Brugia malayi microfilaria assessed as reduction in motility at 2.17 uM after 5 days by MTT dye reduction assay; format: functional, organism-based
Brugia malayi [8] = assay: Antifilarial activity against Brugia malayi microfilaria assessed as reduction in motility at 1.12 uM after 5 days by MTT dye reduction assay; format: functional, organism-based
Brugia malayi [9] = assay: Antifilarial activity against Brugia malayi adult worm assessed as reduction in motility after 5 days by MTT dye reduction assay; format: functional, organism-based
Vero [10] = assay: (§1) Selectivity index, ratio of CC50 for African green monkey Vero cells to IC50 for Brugia malayi adult worm; format: functional
Brugia malayi [11] = assay: Antifilarial activity against Brugia malayi microfilaria assessed as reduction in motility after 5 days by MTT dye reduction assay; format: functional, organism-based
Vero [12] = assay: (§2) Selectivity index, ratio of CC50 for African green monkey Vero cells to IC50 for Brugia malayi microfilaria; format: functional
Brugia malayi [13] = assay: Antifilarial activity against Brugia malayi adult worm infected in jird model assessed as adulticidal activity at 100 mg/kg, sc after 5 days measured till day 45 relative to control; format: functional; conditions: route subcutaneous
Brugia malayi [14] = assay: Antifilarial activity against Brugia malayi adult worm infected in jird model assessed as sterile female at 100 mg/kg, sc after 5 days measured till day 45 relative to control; format: functional; conditions: route subcutaneous
Brugia malayi [15] = assay: Antifilarial activity against Brugia malayi microfilariae infected in jird model assessed as microfilaricidal activity at 100 mg/kg, sc after 5 days measured till day 45 relative to control; format: functional; conditions: route subcutaneous
Brugia malayi [16] = assay: Antifilarial activity against Brugia malayi adult worm assessed as reduction in motility at 5 uM after 5 days by MTT dye reduction assay; format: functional; conditions: 120 h
Brugia malayi [17] = assay: Antifilarial activity against Brugia malayi adult worm assessed as reduction in motility at 2.5 uM after 5 days by MTT dye reduction assay; format: functional; conditions: 120 h
Brugia malayi [18] = assay: Antifilarial activity against Brugia malayi adult worm assessed as reduction in motility at 1.25 uM after 5 days by MTT dye reduction assay; format: functional; conditions: 120 h
Brugia malayi [19] = assay: Antifilarial activity against Brugia malayi adult worm assessed as reduction in motility at 0.625 uM after 5 days by MTT dye reduction assay; format: functional; conditions: 120 h
Brugia malayi [20] = assay: Antifilarial activity against Brugia malayi microfilaria assessed as reduction in motility at 5 uM after 5 days by MTT dye reduction assay; format: functional; conditions: 120 h
Brugia malayi [21] = assay: Antifilarial activity against Brugia malayi microfilaria assessed as reduction in motility at 2.5 uM after 5 days by MTT dye reduction assay; format: functional; conditions: 120 h
Brugia malayi [22] = assay: Antifilarial activity against Brugia malayi microfilaria assessed as reduction in motility at 1.25 uM after 5 days by MTT dye reduction assay; format: functional; conditions: 120 h
Brugia malayi [23] = assay: Antifilarial activity against Brugia malayi microfilaria assessed as reduction in motility at 0.625 uM after 5 days by MTT dye reduction assay; format: functional; conditions: 120 h
[24] = as §1; format: functional
[25] = as §2; format: functional
[26] = (§3) Cytotoxicity against African green monkey Vero cells after 72 hrs by resazurin dye-based fluorescence assay; format: cell-based; conditions: chlorocebus sabaeus, Vero cells
Brugia malayi [27] = assay: Antifilarial activity against Brugia malayi adult worm assessed as reduction in motility at 0.312 uM after 5 days by MTT dye reduction assay; format: functional; conditions: 120 h
Brugia malayi [28] = assay: Antifilarial activity against Brugia malayi adult worm assessed as reduction in motility at 0.156 uM after 5 days by MTT dye reduction assay; format: functional; conditions: 120 h
Brugia malayi [29] = assay: Antifilarial activity against Brugia malayi adult worm assessed as reduction in motility at 0.078 uM after 5 days by MTT dye reduction assay; format: functional; conditions: 120 h
Brugia malayi [30] = assay: Antifilarial activity against Brugia malayi adult worm assessed as reduction in motility at 0.039 uM after 5 days by MTT dye reduction assay; format: functional; conditions: 120 h
Brugia malayi [31] = assay: Antifilarial activity against Brugia malayi adult worm assessed as reduction in motility at 0.019 uM after 5 days by MTT dye reduction assay; format: functional; conditions: 120 h
Brugia malayi [32] = assay: Antifilarial activity against Brugia malayi microfilaria assessed as reduction in motility at 0.312 uM after 5 days by MTT dye reduction assay; format: functional; conditions: 120 h
Brugia malayi [33] = assay: Antifilarial activity against Brugia malayi microfilaria assessed as reduction in motility at 0.156 uM after 5 days by MTT dye reduction assay; format: functional; conditions: 120 h
Brugia malayi [34] = assay: Antifilarial activity against Brugia malayi microfilaria assessed as reduction in motility at 0.078 uM after 5 days by MTT dye reduction assay; format: functional; conditions: 120 h
Brugia malayi [35] = assay: Antifilarial activity against Brugia malayi microfilaria assessed as reduction in motility at 0.039 uM after 5 days by MTT dye reduction assay; format: functional; conditions: 120 h
Brugia malayi [36] = assay: Antifilarial activity against Brugia malayi microfilaria assessed as reduction in motility at 0.019 uM after 5 days by MTT dye reduction assay; format: functional; conditions: 120 h
Brugia malayi [37] = assay: Ratio of ivermectin IC50 to compound IC50 for Brugia malayi adult worm; format: functional
Brugia malayi [38] = assay: Ratio of ivermectin IC50 to compound IC50 for Brugia malayi microfilariae; format: functional
Brugia malayi [39] = assay: Antifilarial activity against Brugia malayi adult worm assessed as reduction in motility at 10 uM after 5 days by MTT dye reduction assay; format: functional, organism-based
Brugia malayi [40] = assay: Antifilarial activity against Brugia malayi microfilaria assessed as reduction in motility at 10 uM after 5 days by MTT dye reduction assay; format: functional, organism-based
Vero [41] = assay: as §3; format: cell-based; conditions: chlorocebus sabaeus, vero, 72 h

Compound: O=c1cc(OCC(O)CNC2CC2)c2ccccc2o1 (stereo not given)
inhibition at 5 µM (Brugia malayi [16]): 97.5% | inhibition at 2.5 µM (Brugia malayi [17]): 56.4% | inhibition at 1.25 µM (Brugia malayi [18]): 43.7% | inhibition at 0.625 µM (Brugia malayi [19]): 34.3% | inhibition at 5 µM (Brugia malayi [20]): 100% | inhibition at 2.5 µM (Brugia malayi [21]): 75% | inhibition at 1.25 µM (Brugia malayi [22]): 75% | inhibition at 0.625 µM (Brugia malayi [23]): 75% | IC50 (Brugia malayi [9]; Brugia malayi, 120 h): 0.88 µM | MIC (Brugia malayi [9]; Brugia malayi, 120 h): 5 µM (≈ 1.38 µg/mL) | Ratio CC50/IC50 [24]: >113.6 | IC50 (Brugia malayi [11]; Brugia malayi, 120 h): 0.38 µM | MIC (Brugia malayi [11]; Brugia malayi, 120 h): 2.5 µM (≈ 0.688 µg/mL) | Ratio CC50/IC50 [25]: >263.15 | CC50 at 72 h [26]: > 100 µM | Activity (Brugia malayi [13]): 52.8% | Activity (Brugia malayi [14]): 0% | Activity (Brugia malayi [15]): 31.4%

Compound: CCCCCCCCCCCCNCC(O)COc1cc(=O)oc2ccccc12 (stereo not given)
inhibition at 1.25 µM (Brugia malayi [18]): 99.5% | inhibition at 0.625 µM (Brugia malayi [19]): 92.4% | inhibition at 0.312 µM (Brugia malayi [27]): 90.8% | inhibition at 0.156 µM (Brugia malayi [28]): 75.5% | inhibition at 0.078 µM (Brugia malayi [29]): 56% | inhibition at 0.039 µM (Brugia malayi [30]): 50% | inhibition at 0.019 µM (Brugia malayi [31]): 30% | inhibition at 1.25 µM (Brugia malayi [22]): 100% | inhibition at 0.625 µM (Brugia malayi [23]): 75% | inhibition at 0.312 µM (Brugia malayi [32]): 75% | inhibition at 0.156 µM (Brugia malayi [33]): 75% | inhibition at 0.078 µM (Brugia malayi [34]): 75% | inhibition at 0.039 µM (Brugia malayi [35]): 75% | inhibition at 0.019 µM (Brugia malayi [36]): 50% | IC50 (Brugia malayi [9]; Brugia malayi, 120 h): 0.014 µM | MIC (Brugia malayi [9]; Brugia malayi, 120 h): 1.25 µM (≈ 0.504 µg/mL) | Ratio CC50/IC50 [24]: >7142 | IC50 (Brugia malayi [11]; Brugia malayi, 120 h): 0.0056 µM | MIC (Brugia malayi [11]; Brugia malayi, 120 h): 0.625 µM (≈ 0.252 µg/mL) | Ratio CC50/IC50 [25]: >17857 | CC50 at 72 h [26]: > 100 µM | Activity (Brugia malayi [13]): 74.9% | Activity (Brugia malayi [14]): 19.3% | Activity (Brugia malayi [15]): 50.8% | Ratio IC50 (Brugia malayi [37]): 129 | Ratio IC50 (Brugia malayi [38]): 714

Compound: IVERMECTIN [listing 2 of 2 here]
IC50 (Brugia malayi [9]): 1.8 µM | IC50 (Brugia malayi [11]): 4 µM | CC50 (Vero [41]): 53.1 µM

Continued, in another order:

MIC (Brugia malayi [9]): 8.9 µM | MIC (Brugia malayi [11]): 10 µM
Compound: IVERMECTIN [listing 1 of 2 here]
inhibition (Brugia malayi [1]): 61.2% | inhibition (Brugia malayi [2]): 35.3% | inhibition (Brugia malayi [3]): 21.6% | inhibition (Brugia malayi [4]): 17.7% | inhibition (Brugia malayi [5]): 0% | inhibition (Brugia malayi [6]): 1% | inhibition (Brugia malayi [7]): 1% | inhibition (Brugia malayi [8]): 50% | Ratio CC50/IC50 (Vero [10]): 29.5 | Ratio CC50/IC50 (Vero [12]): 13.3

MIC (Brugia malayi [9]): inactive | MIC (Brugia malayi [11]): inactive
Compound: CCN(CC)C(=O)N1CCN(C)CC1 [DIETHYLCARBAMAZINE]
Activity (Brugia malayi [13]): 33.3% | Activity (Brugia malayi [14]): 0% | Activity (Brugia malayi [15]): 39.5%

MIC (Brugia malayi [9]): inactive | MIC (Brugia malayi [11]): inactive
Compound: O=c1cc(OCC(O)CN2CCOCC2)c2ccccc2o1 (stereo not given)
inhibition at 5 µM (Brugia malayi [16]): 20.1% | Activity (Brugia malayi [39]): inactive | inhibition at 5 µM (Brugia malayi [20]): 1% | Activity (Brugia malayi [40]): inactive
